The test system of one assay is Ehrlich carcinoma. In words: Activities against Ehrlich carcinoma (antitumor effect, survival time in mice). It is filed as in vivo, ICR female mice. The settings on record: Mus musculus, ip, 720 h, intraperitoneal, once a day for 10 days, average survival time counted 30 days after implantation, read-out: Antitumor effect (T/C %). The method, then: (1) Activities against Ehrlich carcinoma:
To 8 ICR female mice as a group, Ehrlich carcinoma cells were intraperitoneally implanted in an amount of 10^5 cells per mouse. From an elapsed time of 24 hours after the implantation, the compound (I) of this invention which was suspended in physiological saline containing 0.5% of CMC-Na was intraperitoneally administered in predetermined dosages (0.4 mg/kg, 4.0 mg/kg and 40.0 mg/kg), once a day and for 10 days.
Upon an elapsed time of 30 days after the implantation of the carcinoma, the survival time of each mouse was counted. The average survival time of Control Group (C) and that of Group (T), in which the compound of this invention was administered, were obtained respectively. Antitumor effect (T/C %) was then determined in accordance with the following equation. [formula]

The subject of the next assay is Leukemia L-5178Y cells. Nature of the assay: Cell-killing activities (leukemia L-5178Y cells). Format: cell-based. The settings on record: Mus musculus, L5178Y; 48 hours, 37° C., 5% CO2; live cells counted microscopically, probit diagram method. The method, then:
(2) Cell-killing activities:
Leukemia L-5178Y cells were provided to a concentration of 2×10^5cells/ml in PRMI 1640 culture medium which contained 10% of bovine fetus albumin. To portions of the above-prepared culture medium, the compound of this invention was added to concentrations 3.125, 6.25, 12.5, 25, 50, 100 and 300 μg/ml respectively. After culturing them for 48 hours in a 5% CO2 incubator of 37° C., the numbers of live cells on respective portions of the culture were counted microscopically. Percentage proliferation was determined relative to Control and 50% Inhibitory Concentration (IC50) was obtained by the probit diagram method.

≈ marks a conversion by molar mass, not a printed value. Some results are limits rather than exact numbers.

The source of these data is patent US4684719A, “α,α-trehalose fatty acid diester derivative” (SS Pharmaceutical Co., Ltd., priority 1984, dated 1987).

By IC50 is commonly meant the concentration that inhibits the measured activity by half. The low end stands for higher potency, the high end for lower potency. Consider `CCCCCC(=O)O[C@H]1[C@H](O)[C@@H](O)[C@@H](O[C@H]2O[C@H](CO)[C@@H](OC(=O)CCCCC)[C@H](O)[C@H]2O)O[C@@H]1CO` [Compound 13], for which, in the assay on Ehrlich carcinoma, the response vs control in vivo at 0.4 mg/kg was 127%, the response vs control in vivo at 4 mg/kg was 120% and the response vs control in vivo at 40 mg/kg was found to be 103%. Moreover, in the assay on Leukemia L-5178Y cells, the 50% inhibitory concentration (IC50) was > 300 µg/mL.

In the case of `CCCCCCCCCCCC(=O)O[C@H]1[C@H](O)[C@@H](O)[C@@H](O[C@H]2O[C@H](CO)[C@@H](OC(=O)CCCCCCCCCCC)[C@H](O)[C@H]2O)O[C@@H]1CO` [Compound 16], in the assay with Ehrlich carcinoma, the response vs control in vivo at 0.4 mg/kg came to 102%, the response vs control in vivo at 4 mg/kg is 180% and the response vs control in vivo at 40 mg/kg is 225%. In the assay on Leukemia L-5178Y cells, half-maximal inhibition (IC50) required 8.4 µg/mL (≈ 11.9 µM).

For `CCCCCCCCCCCCCCCCCCCCCC(=O)O[C@H]1[C@H](O)[C@@H](O)[C@@H](O[C@H]2O[C@H](CO)[C@@H](OC(=O)CCCCCCCCCCCCCCCCCCCCC)[C@H](O)[C@H]2O)O[C@@H]1CO` [Compound 20], in the assay with Ehrlich carcinoma, the response vs control in vivo at 0.4 mg/kg is 165%, the response vs control in vivo at 4 mg/kg is 179% and the response vs control in vivo at 40 mg/kg was found to be 157%.

Turning to `CC(=O)O[C@H]1[C@H](O)[C@@H](O)[C@@H](O[C@H]2O[C@H](CO)[C@@H](OC(C)=O)[C@H](O)[C@H]2O)O[C@@H]1CO` [Compound 11], in the assay with Ehrlich carcinoma, the response vs control in vivo at 0.4 mg/kg came to 154%, the response vs control in vivo at 4 mg/kg is 105% and the response vs control in vivo at 40 mg/kg worked out at 114%.

For `CCCCCCCC(=O)O[C@H]1[C@H](O)[C@@H](O)[C@@H](O[C@H]2O[C@H](CO)[C@@H](OC(=O)CCCCCCC)[C@H](O)[C@H]2O)O[C@@H]1CO` [Compound 14], in the assay with Ehrlich carcinoma, the response vs control in vivo at 0.4 mg/kg was 136%, the response vs control in vivo at 4 mg/kg amounted to 117% and the response vs control in vivo at 40 mg/kg worked out at 183%. The midpoint of inhibition with Leukemia L-5178Y cells, the IC50, lay at 35.1 µg/mL (≈ 59 µM).

For `CCCC(=O)O[C@H]1[C@H](O)[C@@H](O)[C@@H](O[C@H]2O[C@H](CO)[C@@H](OC(=O)CCC)[C@H](O)[C@H]2O)O[C@@H]1CO` [Compound 12], in the assay on Ehrlich carcinoma, the response vs control in vivo at 0.4 mg/kg came out at 141%, the response vs control in vivo at 4 mg/kg was determined as 142% and the response vs control in vivo at 40 mg/kg was 114%.

As to `CCCCCCCCCC(=O)O[C@H]1[C@H](O)[C@@H](O)[C@@H](O[C@H]2O[C@H](CO)[C@@H](OC(=O)CCCCCCCCC)[C@H](O)[C@H]2O)O[C@@H]1CO` [Compound 15], in the assay with Ehrlich carcinoma, the response vs control in vivo at 0.4 mg/kg came to 121%, the response vs control in vivo at 4 mg/kg worked out at 152% and the response vs control in vivo at 40 mg/kg came out at 188%. In addition, the IC50 in the assay with Leukemia L-5178Y cells stood at 11.2 µg/mL (≈ 17.2 µM).

Consider `CCCCCCCCCCCCCCCC(=O)O[C@H]1[C@H](O)[C@@H](O)[C@@H](O[C@H]2O[C@H](CO)[C@@H](OC(=O)CCCCCCCCCCCCCCC)[C@H](O)[C@H]2O)O[C@@H]1CO` [Compound 18], for which, in the assay on Ehrlich carcinoma, the response vs control in vivo at 0.4 mg/kg was determined as 125%, the response vs control in vivo at 4 mg/kg came out at 216% and the response vs control in vivo at 40 mg/kg amounted to 189%. Moreover, the IC50 in the assay with Leukemia L-5178Y cells was > 300 µg/mL.

Turning to `CCCCCCCCCCCCCC(=O)O[C@H]1[C@H](O)[C@@H](O)[C@@H](O[C@H]2O[C@H](CO)[C@@H](OC(=O)CCCCCCCCCCCCC)[C@H](O)[C@H]2O)O[C@@H]1CO` [Compound 17], in the assay on Ehrlich carcinoma, the response vs control in vivo at 0.4 mg/kg stood at 98%, the response vs control in vivo at 4 mg/kg stood at 203% and the response vs control in vivo at 40 mg/kg was found to be 203%. Moreover, it took 12.6 µg/mL (≈ 16.5 µM) to reach half-maximal inhibition in the assay on Leukemia L-5178Y cells (IC50).

`CCCCCCCCCCCCCCCCCC(=O)O[C@H]1[C@H](O)[C@@H](O)[C@@H](O[C@H]2O[C@H](CO)[C@@H](OC(=O)CCCCCCCCCCCCCCCCC)[C@H](O)[C@H]2O)O[C@@H]1CO` [Compound 19, 4,4'-di-O-stearoyl-α,α-trehalose]: in the assay with Ehrlich carcinoma, the response vs control in vivo at 0.4 mg/kg amounted to 98%, the response vs control in vivo at 4 mg/kg was 183% and the response vs control in vivo at 40 mg/kg came to 198%.
